{"source": "patent US20080279791A1", "about": "“Use of Isoeugenol Methyl Ester as an Agent Against Bad Breath” (SYMRISE GMBH & CO. KG, priority 2004, published 2008)", "type_in_all_cases": "cell-based", "key": {"[1]": {"test_system": "total number of bacteria in the samples of saliva", "test": "Total number of bacteria in samples of saliva", "conditions": "concentration of 1000 ppm"}, "[2]": {"test_system": "fresh morning saliva", "test": "In-vitro test to reduce bad breath (medium inoculated with saliva, incubated, sniffed by panel)", "protocol": "A sterile liquid medium inoculated with fresh morning saliva is incubated for a few days at 37° C. and then sniffed by a panel of testers.\nAs a control for the tests, Triclosan® (5-chloro-2-(2,4-dichlorophenoxy)phenol) was added to inoculated samples in a concentration of 0.05%."}, "[3]": {"test_system": "Veilonella parvula", "test": "Minimum inhibiting concentration, serial-dilution test", "protocol": "(§1) The minimum inhibiting concentration (MIC) of isoeugenol methyl ether was determined in a serial-dilution test against various bacteria."}, "[4]": {"test_system": "Porphyromonas gingivalis", "test": "Minimum inhibiting concentration, serial-dilution test", "protocol": "as §1"}, "[5]": {"test_system": "Escherichia coli", "test": "Minimum inhibiting concentration, serial-dilution test", "protocol": "as §1"}, "[6]": {"test_system": "Prevotella intermedia", "test": "Minimum inhibiting concentration, serial-dilution test", "protocol": "as §1"}, "[7]": {"test_system": "Fusobacterium nucleatum", "test": "Minimum inhibiting concentration, serial-dilution test", "protocol": "as §1"}, "[8]": {"test_system": "Staphylococcus aureus", "test": "Minimum inhibiting concentration, serial-dilution test", "protocol": "as §1"}, "[9]": {"test_system": "Pseudomonas aeruginosa", "test": "Minimum inhibiting concentration, serial-dilution test", "protocol": "as §1"}, "[10]": {"test_system": "Streptococcus mutans", "test": "Minimum inhibiting concentration, serial-dilution test", "protocol": "as §1"}}}
{"molecule": "CC=Cc1ccc(OC)c(OC)c1", "note": "(racemic) [isoeugenol methyl ether, 1,2-dimethoxy-4-propenyl benzene]", "values": [{"measurement": "reduction of the total number of bacteria in saliva samples", "setting": "[1]", "value": "no significant reduction"}, {"measurement": "odour after the incubation period", "setting": "[2]; 0.01% added to inoculated samples", "value": "no odour"}, {"measurement": "odour at sensory assessment", "setting": "[2]; 0.05% added to the inoculated medium just one hour before the sensory assessment", "value": "an unpleasant mixed odour of bad breath and a faint isoeugenol methyl ether note"}, {"measurement": "odour after the incubation period", "setting": "[2]; concentrations of significantly less than 0.01%", "value": "a changed characteristic odour or a mixed odour was discernible in some cases"}, {"measurement": "minimum effective concentration", "setting": "[2]; no odour after incubation of inoculated samples", "value": 0.01, "unit": "%"}, {"measurement": "MIC", "setting": "[3]", "value": 250, "unit": "mg/L"}, {"measurement": "Type", "setting": "[3]; Veilonella parvula, 250 ppm", "value": "bacteriostatic action"}, {"measurement": "MIC", "setting": "[4]", "value": 500, "unit": "mg/L"}, {"measurement": "Type of action", "setting": "[4]; 500 ppm", "value": "effectiveness"}, {"measurement": "MIC", "setting": "[5]", "value": "> 1000", "unit": "mg/L"}, {"measurement": "Type", "setting": "[5]", "value": "No action up to 1000 ppm"}, {"measurement": "MIC", "setting": "[6]", "value": 500, "unit": "mg/L"}, {"measurement": "Type", "setting": "[6]; 500 ppm", "value": "bactericidal action"}, {"measurement": "MIC", "setting": "[7]", "value": 250, "unit": "mg/L"}, {"measurement": "Type", "setting": "[7]; 250 ppm", "value": "bacteriostatic action"}, {"measurement": "MIC", "setting": "[8]", "value": "> 1000", "unit": "mg/L"}, {"measurement": "Type", "setting": "[8]", "value": "No action up to 1000 ppm"}, {"measurement": "MIC", "setting": "[9]", "value": "> 1000", "unit": "mg/L"}, {"measurement": "Type", "setting": "[9]", "value": "No action up to 1000 ppm"}, {"measurement": "MIC", "setting": "[10]", "value": "> 1000", "unit": "mg/L"}, {"measurement": "Type", "setting": "[10]", "value": "No action up to 1000 ppm"}]}
{"molecule": "Oc1cc(Cl)ccc1Oc1ccc(Cl)cc1Cl", "note": "[Triclosan®, 5-chloro-2-(2,4-dichlorophenoxy)phenol, reference compound]", "values": [{"measurement": "odour after the incubation period", "setting": "[2]; 0.05% added to inoculated samples", "value": "the same faint odour of medium as the uninoculated samples"}]}
